{
  "source": "patent US10788497B2",
  "about": "“Method for detecting oxidising species” (ECOLE POLYTECHNIQUE, priority 2015, dated 2020)",
  "system": "EGFR (Epidermal Growth Factor Receptor)",
  "assay": "Hydrogen peroxide production in vascular smooth muscle cells after endothelin-1 stimulation, with or without EGFR inhibition, measured with YAG:Ce and reduced GdVO4:Eu nanoparticles",
  "type": "cell-based",
  "settings": "mouse vascular smooth muscle cells; 270 nM endothelin-1; AG1478 applied 30 min before stimulation and added to the observation medium",
  "protocol": "Firstly, mammalian cells were prepared. For this purpose, mouse vascular smooth muscle cells (primary culture) were cultured in RPMI (“Roswell Park Memorial Institute” medium) containing 10% of fetal calf serum and antibiotics, in the present case penicillin and streptomycin. When confluence reaches 80%, the cells are taken and deposited on glass slides. In this particular case, 1.5×10^4 cells are typically arranged on a glass slide. The cells are then cultured on the slides for forty-eight hours in the complete culture medium, and then in a medium without serum for twenty-four hours.\nIn addition, a stable colloidal solution of […] with a concentration roughly equal to 1 mM is prepared. […]\nThen a slide with cells loaded with nanoparticles is placed on a sample holder and 1 mL of buffered physiological medium (HBSS/1 mM HEPES) is added. […] After fifty seconds of observation, the initial medium is replaced with physiological medium containing 270 nM of endothelin-1 (ET-1) and the luminescence of individual nanoparticles is observed for several minutes on a full-field sensor (EM-CCD ImageEM camera, Hamamatsu). […]\nNext, the variations in intensity of the particles observed (doped with Ce or Eu) over time are determined using image analysis or calculation software (for example Matlab). Each curve obtained is normalized, taking the first values measured for reference. […]",
  "data": [
    {"smiles": "COc1cc2ncnc(Nc3cccc(Cl)c3)c2cc1OC", "note": "[AG1478]", "values": [
      {"measurement": "contribution of the EGFR pathway to hydrogen peroxide production (inhibited cells produce half as much hydrogen peroxide as the normal cells)", "value": 50, "unit": "%"}
    ]}
  ]
}
